Assay results from US8372971B2, “Heterocyclic compounds and methods of use” (TargeGen, Inc., priority 2004, dated 2013).
Counter-ions that a name gives are not always drawn. Like-named read-outs stand apart in the source and are kept apart here.

What was measured:
Format in all cases: cell-based, human
[1] = test system: p-MEK and p-ERK levels in HUVECs; assay: Western Blot, inhibition of MAPK pathway in cellular assay (Example 27); settings: at 5 uM, 50 ng/ml VEGF or FGF
Description: (§1) Western Blot: Early passage primary human umbilical vein endothelial cells (HUVECs) were maintained in EGM-2 containing SingleQuots (Cambrex, East Rutherford, N.J.), 10% FBS, 10 mM HEPES, and 50 μg/ml gentamicin. Prior to treatment of the cells with inhibitor, the HUVECs were starved for 18 h by replacing serum-containing complete media with scrum-free and SingleQuot-free media. The starved cells were pre-treated with inhibitors for 60 min at various concentrations (0-20 μM). Next the HUVECs were treated with 50 ng/ml VEGF or FGF (Peprotech, Rocky Hill, N.J.) for 6 min and the cells were immediately washed with ice-cold PBS. Cells were lysed with ice-cold RIPA buffer containing 100 mM Tris pH 7.5, 150 mM NaCl, 1 mM EDTA, 1% deoxycholate, 1% Triton X-100, 0.1% SDS, 2 mM PMSF, one Complete-Mini protease inhibitor tablet (Roche, Indianapolis, Ind.; 1 tablet/7 ml of lysis buffer) and the phophatase inhibitors NaF (500 mM) and orthovanadate (1 mM). The cells were scraped and lysates transferred and centrifuged at 15,000 g for 10 min. Supernatants were transferred to new tubes and protein concentration was quantitated using the BCA protein reagent (Pierce, Rockford, Ill.). Cell lysates containing 20 μg of total protein were separated by 10% SDS-PAGE, transferred to nitrocellulose, and blocked in 5% milk in TBST. Anti phospho-ERK Thr 202/Tyr 204 (Cell Signaling, Beverly, Mass.), anti-phospho-MEK Ser217/221 (Cell Signaling), and c-Raf (BD Biosciences Pharmingen, San Diego, Calif.) used as primary antibodies were detected with horseradish peroxidase-conjugated goat anti-mouse or rabbit secondary antibodies and bands were visualized using the SuperSignal West Pico chemiluminescence reagent system (Pierce) and Kodak X-ray film (Rochester, N.Y.).

[2] = test system: p-MEK and p-ERK levels in HUVECs; assay: Western Blot, inhibition of MAPK pathway in cellular assay (Example 105); settings: 50 ng/ml VEGF or FGF
Description: as §1, with “Some compounds described by the general structure (B) were tested for inhibition of MAPK pathway in cellular assay. Western” for “Western”, “serum-free” for “scrum-free”, “main.” for “min.”

[3] = test system: HUVECs; assay: XTT cell viability assay (Example 106); settings: 72 hours, read-out: Inhibition of HUVEC cell prolifiration (IC50)
Description: Some compounds described by the general structure (B) were tested for cell viability. XTT assay: HUVECs were seeded at 10,000 cells/well of a tissue culture treated 96-well plate treated with collagen type I and grown overnight in the complete EGM-2 media as described above. The following morning, the inhibitors were serial diluted with DMSO and added to the cells with a final DMSO concentration of 1%. After 72 hours cell viability was measured with an XTT assay (Sigma, St. Louis, Mo.). The cells were also photographed to compare morphological differences to the XTT trends observed. Determination of the IC50 values was performed with quantitative software (Prism software package, GraphPad Software, San Diego Calif.).

Compound	Western Blot ([2]; at 10 uM)	IC50 ([3]; Homo sapiens, HUVEC)	Western Blot ([2]; at 5 uM)	further results
O=C(Nc1ccc(OC(F)(F)F)cc1)Nc1nnc2cc(Oc3ccnc(C(=O)NCCN4CCOCC4)c3)ccc2n1 [4-{3-[3-(4-Trifluoromethoxy-phenyl)-ureido]-benzo[1,2,4]triazin-7-yloxy}-pyridine-2-carboxylic acid (2-morpholin-4-yl-ethyl)-amide]				Western Blot [1]: not active at 5 uM
O=C(Nc1nnc(-c2ccc(Oc3cccnc3)cc2)o1)c1ccc2c(c1)OC(F)(F)O2 [2,2-Difluoro-N-{5-[4-(pyridin-3-yloxy)phenyl]-1,3,4-oxadiazol-2-yl}-1,3-benzodioxole-5-carboxamide]	not active at 10 uM	> 40 µM		
CNC(=O)c1cc(Oc2ccc3nc(NS(=O)(=O)c4cc(C(F)(F)F)ccc4Cl)nnc3c2)ccn1 [4-[2-chloro-5-(trifluoromethyl-benzenesulfonylamino)-benzo[1,2,4]triazin-7-yloxy]-pyridine-2-carboxylic acid methyl amide trifluoroacetate salt]				Western Blot [1]: not active at 5 uM
CN(C)C(=O)c1cc(Oc2ccc3nc(N(C)C(=O)c4ccc(OC(F)(F)F)cc4)nnc3c2)ccn1 [4-{3-[Methyl-(4-trifluoromethoxy-benzoyl)-amino]-benzo[1,2,4]triazin-7-yloxy}-pyridine-2-carboxylic acid dimethyl amide]				Western Blot [1]: partially active at 5 uM
Nc1cc(Oc2ccc(Nc3nnc(-c4ccc(OC(F)(F)F)cc4)[nH]3)cc2)nc(N)n1 [6-[4-({5-[4-(trifluoromethoxy)-phenyl-4H-1,2,4-triazol-3-yl}amino)phenoxy]pyrimidine-2,4-diamine]				Western Blot ([2]; concentration not given): not active; IC50 [3]: 6.58 µM
CNC(=O)c1cc(Oc2ccc(-c3nnc(Nc4ccc(Cl)c(C(F)(F)F)c4)o3)cc2)ccn1 [4-[4-(5-{[4-chloro-3-(trifluoromethyl)phenyl]amino}-1,3,4-oxadiazol-2-yl)phenoxy]-N-methylpyridine-2-carboxamide trifluoroacetate salt]		5.6 µM	active at 5 uM	
O=C(Nc1nnc(-c2ccc(Oc3cccnc3)cc2)o1)c1ccccc1OC(F)(F)F [N-{5-[4-(pyridin-3-yloxy)phenyl]-1,3,4-oxadiazol-2-yl}-2-(trifluoromethoxy)-benzamide]	not active at 10 uM	~20 µM		
Nc1cc(Oc2ccc(-c3nnc(Nc4cccc(C(F)(F)F)c4)o3)cc2)nc(N)n1 [6-[4-(5-{[3-(trifluoromethyl)phenyl]amino}-1,3,4-oxadiazol-2-yl)phenoxy}pyrimidine-2,4-diamine]		> 10 µM	active at 5 uM	
O=C(Nc1nnc(-c2ccc(Oc3cccnc3)cc2)o1)c1ccc(OC(F)(F)F)cc1 [N-{5-[4-(pyridine-3-yloxy)phenyl]-1,3,4-oxadiazol-2-yl}-4-(trifluoromethoxy)benzamide]	not active at 10 uM	> 40 µM		
Nc1cc(Oc2ccc(Nc3nnc(-c4ccc(Cl)c(C(F)(F)F)c4)[nH]3)cc2)nc(N)n1 [6-[4-({5-[4-chloro-3-(trifluoromethyl)phenyl-4H-1,2,4-triazol-3-yl}amino)phenoxy]pyrimidine-2,4-diamine trifluoroacetate salt]		9.57 µM	active at 5 uM	
FC(F)(F)c1cccc(Nc2nnc(-c3ccc(Oc4cccnc4)cc3)o2)c1 [5-[4-(Pyridin-3-yloxy)phenyl]-N-[3-trifluoromethyl-phenyl]-1,3,4-oxadiazol-2-amine]	active at 10 uM	> 20 µM		
COc1ccc(C(=O)Nc2nnc(-c3ccc(Oc4cccnc4)cc3)o2)cc1C(F)(F)F [4-methoxy-N-{5-[4-(pyridin-3-yloxy)phenyl]-1,3,4-oxadiazol-2-yl}-3-(trifluoromethyl)-benzamide]	active at 10 uM	> 40 µM		
FC(F)(F)c1cccc(Nc2nnc(-c3ccc(Oc4cncnc4)cc3)o2)c1 [5-[4-(Pyrimidin-5-yloxy)phenyl]-N-[3-(trifluoromethyl)phenyl]-1,3,4-oxadiazol-2-amine]		> 10 µM	active at 5 uM	
FC(F)(F)c1cc(Nc2nnc(-c3ccc(Oc4cccnc4)cc3)[nH]2)ccc1Cl [(4-chloro-3-trifluoromethyl-phenyl)-{5-[4-(pyridin-3-yloxy)-phenyl]-4H-[1,2,4]triazol-3-yl}-amine]		1.81 µM	active at 5 uM	
Nc1cc(Oc2ccc(-c3nnc(Nc4ccc(Cl)c(C(F)(F)F)c4)o3)cc2)nc(N)n1 [6-[4-(5-{[4-Chloro-3-trifluoromethyl-phenyl]amino}-1,3,4-oxadiazol-2-yl)-phenoxy]-pyrimidine-2,4-diamine]		1.57 µM	active at 5 uM	
Nc1cc(Oc2cccc(-c3nnc(Nc4ccc(Cl)c(C(F)(F)F)c4)[nH]3)c2)nc(N)n1 [6-{3-[5-(4-chloro-3-trifluoromethyl-phenylamino)-4H-[1,2,4]triazol-3-yl]-phenoxy}-pyrimidine-2,4-diamine trifluoroacetic acid salt]		0.404 µM	active at 5 uM	
Nc1cc(Oc2ccc(-c3nnc(Nc4cccc(Cl)c4)o3)cc2)nc(N)n1 [6-(4-{5-[(3-chlorophenyl)amino]-1,3,4-oxadiazol-2-yl}phenoxy) pyrimidine-2,4-diamine]		~20 µM	active at 5 uM	
Nc1cc(Oc2ccc(-c3nnc(Nc4ccc(Cl)c(C(F)(F)F)c4)[nH]3)cc2)nc(N)n1 [6-{4-[5-(4-chloro-3-trifluoromethyl-phenylamino)-4H-[1,2,4]-triazol-3-yl]-phenoxy}-pyrimidine-2,4-diamine]		0.089 µM	active at 5 uM	
O=C(Nc1nnc(-c2ccc(Oc3cccnc3)cc2)o1)c1ccc(F)c(C(F)(F)F)c1 [4-Fluoro-N-{5-[4-(pyridin-3-yloxy)phenyl]-1,3,4-oxadiazol-2-yl}-3-(trifluoromethyl)-benzamide]	active at 10 uM	~20 µM		
O=C(Nc1nnc(-c2ccc(Oc3cccnc3)cc2)o1)c1cccc(OC(F)(F)F)c1 [N-{5-[4-(pyridin-3-yloxy)phenyl]-1,3,4-oxadiazol-2-yl}-3-(trifluoromethoxy)-benzamide]	not active at 10 uM	> 40 µM		
O=C(Nc1nnc(-c2ccc(Oc3cccnc3)cc2)o1)c1cccc(C(F)(F)F)c1 [N-{5-[4-(pyridin-3-yloxy)phenyl]-1,3,4-oxadiazol-2-yl}-3-(trifluoromethyl)benzamide]	active at 10 uM	> 40 µM		
